These results are taken from ChEMBL document CHEMBL1139163, “Discovery and initial SAR of 3-(1H-benzo[d]imidazol-2-yl)pyridin-2(1H)-ones as inhibitors of insulin-like growth factor 1-receptor (IGF-1R)” (Bioorg Med Chem Lett, 2007).

Assay [1] deals with Insulin-like growth factor 1 receptor (Homo sapiens, UniProt P08069). As to the kind of experiment: Inhibition of human recombinant IGF1 receptor.
The next assay relates to HT-29. As to the kind of experiment: Cytotoxicity against HT29 cells by MTT assay. Format: functional, Homo sapiens. On the technique in general: Tetrazolium dyes change colour on reduction, which living cells bring about.

Structures are written as SMILES.

Chain of Insulin-like growth factor 1 receptor (P08069 31-736 limits assumed): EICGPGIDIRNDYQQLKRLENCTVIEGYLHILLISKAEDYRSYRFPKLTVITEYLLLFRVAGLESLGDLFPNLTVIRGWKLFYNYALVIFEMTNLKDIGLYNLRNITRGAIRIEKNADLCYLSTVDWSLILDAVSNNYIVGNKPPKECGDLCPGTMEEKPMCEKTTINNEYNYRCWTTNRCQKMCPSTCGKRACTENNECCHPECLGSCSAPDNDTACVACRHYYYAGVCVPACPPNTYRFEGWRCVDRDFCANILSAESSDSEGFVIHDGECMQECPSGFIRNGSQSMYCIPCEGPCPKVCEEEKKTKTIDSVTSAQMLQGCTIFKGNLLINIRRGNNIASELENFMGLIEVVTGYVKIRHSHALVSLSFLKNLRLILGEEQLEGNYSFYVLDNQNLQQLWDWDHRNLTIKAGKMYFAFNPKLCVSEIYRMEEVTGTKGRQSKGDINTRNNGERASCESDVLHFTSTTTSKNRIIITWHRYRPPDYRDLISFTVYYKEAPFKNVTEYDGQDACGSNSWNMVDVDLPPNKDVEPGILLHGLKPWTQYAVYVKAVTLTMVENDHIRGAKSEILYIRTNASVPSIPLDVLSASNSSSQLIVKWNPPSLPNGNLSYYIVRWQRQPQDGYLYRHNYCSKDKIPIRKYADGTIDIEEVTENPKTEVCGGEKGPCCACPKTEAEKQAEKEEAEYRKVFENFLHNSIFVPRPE
Chain of Insulin-like growth factor 1 receptor (P08069 741-1367 limits assumed): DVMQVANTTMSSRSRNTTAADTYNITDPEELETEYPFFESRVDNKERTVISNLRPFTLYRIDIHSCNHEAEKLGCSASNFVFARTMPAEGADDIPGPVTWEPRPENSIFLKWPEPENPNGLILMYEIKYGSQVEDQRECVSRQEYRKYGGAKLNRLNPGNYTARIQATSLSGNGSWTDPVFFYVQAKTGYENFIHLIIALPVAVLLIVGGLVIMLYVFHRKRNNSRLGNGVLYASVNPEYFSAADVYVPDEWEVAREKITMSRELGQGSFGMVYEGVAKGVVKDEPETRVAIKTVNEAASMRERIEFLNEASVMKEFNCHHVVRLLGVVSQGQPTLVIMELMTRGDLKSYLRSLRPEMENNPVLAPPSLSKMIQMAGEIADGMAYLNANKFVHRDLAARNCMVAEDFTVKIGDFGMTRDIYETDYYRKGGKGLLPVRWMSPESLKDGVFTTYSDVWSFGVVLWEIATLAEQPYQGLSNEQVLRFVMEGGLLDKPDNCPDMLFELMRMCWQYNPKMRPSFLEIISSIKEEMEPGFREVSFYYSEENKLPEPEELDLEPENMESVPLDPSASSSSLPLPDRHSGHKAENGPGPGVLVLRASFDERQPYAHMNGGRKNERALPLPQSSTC

By IC50 is commonly meant the concentration that gives 50% inhibition. In the case of `Cc1cc(-n2ccnc2)cc2[nH]c(-c3c(N[C@H](CO)Cc4cccc([N+](=O)[O-])c4)cc[nH]c3=O)nc12`, in assay [1], the IC50 was 3.3 µM.

Consider `Cc1cc(-n2ccnc2)cc2[nH]c(-c3c(NCc4cccs4)cc[nH]c3=O)nc12`, for which the half-maximal inhibitory concentration (IC50) in assay [1] amounted to 5.3 µM.

Turning to `COc1ccc(C[C@@H](CO)Nc2cc[nH]c(=O)c2-c2nc3c(C)cc(-n4ccnc4)cc3[nH]2)cc1`, in assay [1], the IC50 is 3.1 µM.

`Cc1cc(-n2ccnc2)cc2nc(-c3c(NCCn4nccn4)cc[nH]c3=O)[nH]c12`: the IC50 in assay [1] amounted to 2.5 µM.

As to `COc1ccccc1C[C@@H](CO)Nc1cc[nH]c(=O)c1-c1nc2c(C)cc(-n3ccnc3)cc2[nH]1`, the Activity with HT-29 worked out at 1.2 µM. Also, the IC50 in assay [1] was determined as 0.57 µM.

On to `Cc1cc(-n2ccnc2)cc2nc(-c3c(N[C@H](CO)Cc4ccccn4)cc[nH]c3=O)[nH]c12`, for which, in assay [1], the IC50 amounted to 4.8 µM.

With `Cc1cc(-n2ccnc2)cc2[nH]c(-c3c(N[C@H](CO)Cc4ccc(F)cc4)cc[nH]c3=O)nc12`, the IC50 in assay [1] stood at 1.4 µM.

`Cc1cc(-n2ccnc2)cc2[nH]c(-c3c(N[C@H](CO)Cc4ccc(Cl)cc4)cc[nH]c3=O)nc12`: the IC50 in assay [1] was determined as 5.4 µM.

On to `Cc1cc(-n2ccnc2)cc2[nH]c(-c3c(N[C@H](CO)Cc4ccccc4C#N)cc[nH]c3=O)nc12`, for which the IC50 in assay [1] worked out at 2.2 µM.

Consider `Cc1cc(-n2ccnc2)cc2[nH]c(-c3c(N[C@H](CO)Cc4cccc(C(F)(F)F)c4)cc[nH]c3=O)nc12`, for which the IC50 in assay [1] came to 3.5 µM.

On to `Cc1cc(-n2ccnc2)cc2[nH]c(-c3c(OCc4ccccn4)cc[nH]c3=O)nc12`, for which, in assay [1], the IC50 is over 25 µM.

On to `Cc1cc(-n2ccnc2)cc2[nH]c(-c3c(NCc4ccncc4)cc[nH]c3=O)nc12`, for which the IC50 in assay [1] was over 25 µM.

On to `Cc1ccccc1C[C@@H](CO)Nc1cc[nH]c(=O)c1-c1nc2c(C)cc(-n3ccnc3)cc2[nH]1`, for which, in assay [1], the IC50 came to 0.53 µM.

`NCc1cc(-n2ccnc2)cc2nc(-c3ccc[nH]c3=O)[nH]c12`: the IC50 in assay [1] was over 25 µM.

In the case of `CCN(Cc1cc(-n2ccnc2)cc2[nH]c(-c3ccc[nH]c3=O)nc12)c1ncc[nH]1`, the IC50 in assay [1] was 13 µM.

Compound `Cc1cc(-n2ccnc2)cc2[nH]c(-c3c(N[C@H](CO)Cc4cccc(F)c4)cc[nH]c3=O)nc12` registered an Activity in the assay on HT-29 of 2.1 µM. Also, in assay [1], the IC50 amounted to 0.59 µM.

As to `Cc1cc(-n2ccnc2)cc2[nH]c(-c3c(N[C@H](CO)Cc4cccc(Br)c4)cc[nH]c3=O)nc12`, the Activity in the assay with HT-29 came to 1.3 µM. The IC50 in assay [1] was determined as 0.59 µM.

Take `Cc1cc(-n2ccnc2)cc2[nH]c(-c3c(N[C@H](CO)Cc4ccccc4Cl)cc[nH]c3=O)nc12`: in assay [1], the IC50 worked out at 0.86 µM.

As for `O=c1[nH]cccc1-c1nc2c(CN3CCNCC3)cc(-n3ccnc3)cc2[nH]1`, the IC50 in assay [1] was over 25 µM.

Regarding `Cc1cc(-n2ccnc2)cc2[nH]c(-c3c(N[C@H](CO)Cc4ccc(OC(C)(C)C)cc4)cc[nH]c3=O)nc12`, in assay [1], the IC50 was 1.7 µM.

`Cc1cc(-n2ccnc2)cc2[nH]c(-c3c(N[C@H](CO)Cc4ccccc4OC(F)(F)F)cc[nH]c3=O)nc12`: the IC50 in assay [1] was found to be 1.3 µM.

As to `Cc1cc(-n2ccnc2)cc2nc(-c3c(NCc4cccnc4)cc[nH]c3=O)[nH]c12`, the IC50 in assay [1] was 14 µM.

`Cc1cc(-n2ccnc2)cc2[nH]c(-c3c(N[C@H](CO)Cc4ccccc4)cc[nH]c3=O)nc12` yielded an Activity with HT-29 of 0.78 µM. The half-inhibitory concentration (IC50) in assay [1] worked out at 0.53 µM.

For the compound `CNCc1cc(-n2ccnc2)cc2nc(-c3ccc[nH]c3=O)[nH]c12`, the IC50 in assay [1] is over 25 µM.

As to `O=c1[nH]cccc1-c1nc2cc(-n3ccnc3)cc(CNCc3cccnc3)c2[nH]1`, in assay [1], the IC50 is over 25 µM.

Turning to `Cc1cc(-n2ccnc2)cc2nc(-c3c(NCc4ccccn4)cc[nH]c3=O)[nH]c12`, the Activity in the assay on HT-29 came out at 7.6 µM.

Turning to `CN(Cc1cc(-n2ccnc2)cc2[nH]c(-c3ccc[nH]c3=O)nc12)c1ccccc1`, the IC50 in assay [1] is over 25 µM.

For the compound `O=c1[nH]cccc1-c1nc2c(CNCc3ccccc3)cc(-n3ccnc3)cc2[nH]1`, in assay [1], the IC50 is over 25 µM.

Take `Cc1cc(-n2ccnc2)cc2nc(-c3c(NCc4ccco4)cc[nH]c3=O)[nH]c12`: in assay [1], the IC50 stood at 3 µM.

In the case of `Cc1cc(-n2ccnc2)cc2[nH]c(-c3c(N[C@H](CO)Cc4ccccc4Br)cc[nH]c3=O)nc12`, the Activity in the assay on HT-29 came to 0.83 µM. Further, the IC50 in assay [1] was 0.29 µM.

As for `Cc1cc(-n2ccnc2)cc2[nH]c(-c3c(SCc4ccccn4)cc[nH]c3=O)nc12`, the IC50 in assay [1] was over 25 µM.

In the case of `COc1cccc(C[C@@H](CO)Nc2cc[nH]c(=O)c2-c2nc3c(C)cc(-n4ccnc4)cc3[nH]2)c1`, the Activity in the assay on HT-29 is 1.6 µM. The IC50 in assay [1] turned out to be 0.66 µM.

With `Cc1cc(-n2ccnc2)cc2[nH]c(-c3c(N[C@H](CO)Cc4cccc(Cl)c4)cc[nH]c3=O)nc12`, the Activity in the assay with HT-29 is 1.1 µM. Moreover, the IC50 in assay [1] amounted to 0.73 µM.

For the compound `Cc1cc(-n2ccnc2)cc2[nH]c(-c3c(NCCc4cccs4)cc[nH]c3=O)nc12`, the IC50 in assay [1] stood at 2.1 µM.
